ChEMBL document CHEMBL1811837 (Bioorg Med Chem, 2011)
Active and inactive are the calls of the source. The rule behind the calls is not given here.

Experiments:
[1] = biological target: Sigma non-opioid intracellular receptor 1 (Cavia porcellus, UniProt Q60492)
D(2) dopamine receptor [2] = biological target: T1, D(2) dopamine receptor (Homo sapiens, UniProt P14416); experiment: biochemical
D(3) dopamine receptor [3] = biological target: T2, D(3) dopamine receptor (Homo sapiens, UniProt P35462); experiment: biochemical
T2 sequence (P35462 whole entry): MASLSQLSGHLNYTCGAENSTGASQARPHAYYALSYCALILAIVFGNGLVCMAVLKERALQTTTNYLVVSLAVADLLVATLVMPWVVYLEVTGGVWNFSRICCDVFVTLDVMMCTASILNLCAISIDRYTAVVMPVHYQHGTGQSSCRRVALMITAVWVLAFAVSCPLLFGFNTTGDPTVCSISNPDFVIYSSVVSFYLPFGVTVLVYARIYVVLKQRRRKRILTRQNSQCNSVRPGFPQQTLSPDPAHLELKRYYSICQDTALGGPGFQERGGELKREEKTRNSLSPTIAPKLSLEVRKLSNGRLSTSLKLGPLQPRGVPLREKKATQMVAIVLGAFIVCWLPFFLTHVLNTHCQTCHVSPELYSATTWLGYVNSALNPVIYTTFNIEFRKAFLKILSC

D(4) dopamine receptor = biological target: T3, D(4) dopamine receptor (Homo sapiens, UniProt P21917); experiment: biochemical
T3 sequence (P21917 whole entry): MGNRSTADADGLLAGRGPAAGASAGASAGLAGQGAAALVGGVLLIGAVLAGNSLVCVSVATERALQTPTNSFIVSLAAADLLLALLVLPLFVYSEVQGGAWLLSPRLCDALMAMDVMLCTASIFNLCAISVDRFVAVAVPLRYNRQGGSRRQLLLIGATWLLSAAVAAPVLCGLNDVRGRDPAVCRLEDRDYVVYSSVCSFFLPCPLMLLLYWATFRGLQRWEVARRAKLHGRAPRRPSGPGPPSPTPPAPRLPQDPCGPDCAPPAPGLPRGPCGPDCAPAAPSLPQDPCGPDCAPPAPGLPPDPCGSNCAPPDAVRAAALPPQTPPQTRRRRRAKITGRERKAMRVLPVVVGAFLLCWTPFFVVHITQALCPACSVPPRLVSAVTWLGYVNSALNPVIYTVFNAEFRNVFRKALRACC

D(2) dopamine receptor [4] = biological target: T1, D(2) dopamine receptor
D(2) dopamine receptor [5] = biological target: T1, D(2) dopamine receptor; experiment: Partial agonist activity at human recombinant D2L receptor expressed in HEK cells assessed as inhibition of forskolin-induced [3H]cAMP production at 10 times Ki after 20 mins by […]; format: functional, cell-based; settings: HEK293
D(3) dopamine receptor [6] = biological target: T2, D(3) dopamine receptor; experiment: Partial agonist activity at human recombinant D3 receptor expressed in HEK cells assessed as inhibition of forskolin-induced [3H]cAMP production at 10 times Ki after 20 mins by […]; format: functional, cell-based; settings: HEK293
D(2) dopamine receptor [7] = biological target: T1, D(2) dopamine receptor; experiment: Intrinsic efficacy at human recombinant D2L receptor expressed in HEK cells assessed as assessed as inhibition of forskolin-induced [3H]cAMP production after 20 mins by […]; format: functional, cell-based; set-up: scale not given: the % may be the effect or the level left; settings: HEK293

Sequence of Sigma non-opioid intracellular receptor 1 (Q60492 whole entry): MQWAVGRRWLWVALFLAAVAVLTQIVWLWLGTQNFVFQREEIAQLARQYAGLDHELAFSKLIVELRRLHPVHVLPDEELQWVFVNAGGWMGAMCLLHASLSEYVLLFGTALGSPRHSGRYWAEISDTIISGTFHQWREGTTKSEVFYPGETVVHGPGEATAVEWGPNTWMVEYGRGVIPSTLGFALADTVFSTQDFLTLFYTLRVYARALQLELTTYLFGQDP
T1 sequence (P14416 whole entry): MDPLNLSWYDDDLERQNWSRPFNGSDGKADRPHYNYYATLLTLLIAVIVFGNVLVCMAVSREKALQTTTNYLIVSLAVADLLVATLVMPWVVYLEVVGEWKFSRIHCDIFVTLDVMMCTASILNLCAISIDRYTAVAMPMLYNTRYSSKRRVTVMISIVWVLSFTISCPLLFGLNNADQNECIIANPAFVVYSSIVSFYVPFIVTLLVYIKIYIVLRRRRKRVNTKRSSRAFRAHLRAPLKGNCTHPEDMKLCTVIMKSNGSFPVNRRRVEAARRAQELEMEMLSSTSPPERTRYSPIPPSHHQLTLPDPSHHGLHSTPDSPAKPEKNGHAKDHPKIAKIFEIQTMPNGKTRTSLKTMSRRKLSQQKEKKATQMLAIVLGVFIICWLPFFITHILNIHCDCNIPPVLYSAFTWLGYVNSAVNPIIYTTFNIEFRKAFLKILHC

Row | SMILES | Ki [1] [nM] | Ki (D(2) dopamine receptor [2]) [nM] | Ki (D(3) dopamine receptor [3]) [nM] | Ki (D(4) dopamine receptor) [nM] | Ki (D(2) dopamine receptor [4]) [nM] | Activity (D(2) dopamine receptor [5]) | Activity (D(3) dopamine receptor [6]) | Activity (D(2) dopamine receptor [7]) [%]
1 | COc1ccccc1N1CCN(CCCCCOc2ccc3c(c2)NC(=O)CC3)CC1 | 1350 |  |  |  |  |  |  | 
2 | COc1ccc(N2CCN(CCCCOc3ccc4c(c3)NC(=O)CC4)CC2)cc1 | 170 | 102 | 930 | 359 |  |  |  | 
3 | COc1ccccc1N1CCN(CCCCOc2ccc3c(c2)NC(=O)CC3)CC1 | 1180 |  |  |  |  |  |  | 
4 | O=C1CCc2ccc(OCCCCN3CCC(n4c(=O)[nH]c5cc(Cl)ccc54)CC3)cc2N1 |  | 309 | 574 | 1350 |  |  |  | 
5 | CN1CN(c2ccccc2)C2(CCN(CCCCOc3ccc4c(c3)NC(=O)CC4)CC2)C1=O |  | 611 | 427 | 865 |  |  |  | 
6 | O=C1CCc2ccc(OCCCCN3CCC(O)(c4ccc(Cl)cc4)CC3)cc2N1 | 417 | 2600 | 1540 | 1310 |  |  |  | 
7 | O=C1CCc2ccc(OCCCCN3CCC(n4c(=O)[nH]c5ccccc54)CC3)cc2N1 |  | 145 | 879 | 1030 |  |  |  | 
8 | COc1ccc(N2CCN(CCCCOc3ccc4c(c3)NC(=O)CC4)CC2)c(OC)c1 | 620 | 25.3 | 785 | 286 |  |  |  | 

The remaining compounds from weak to strong by Ki (D(3) dopamine receptor [3]), led by results:

Row | Ki [1] [nM] | Ki (D(2) dopamine receptor [2]) [nM] | Ki (D(3) dopamine receptor [3]) [nM] | Ki (D(4) dopamine receptor) [nM] | Ki (D(2) dopamine receptor [4]) [nM] | Activity (D(2) dopamine receptor [5]) | Activity (D(3) dopamine receptor [6]) | Activity (D(2) dopamine receptor [7]) [%] | SMILES
9 | 377 | 4.6 | 251 | 27.2 |  |  |  |  | COc1cc(C)ccc1N1CCN(CCCCOc2ccc3c(c2)NC(=O)CC3)CC1
10 | 13600 | 0.26 | 13.5 | 185 |  | Active | Active | 16 | O=C1CCc2ccc(OCCCCN3CCN(c4ccccc4OCCF)CC3)cc2N1
11 | 759 |  | 7.4 | 38.5 | 4.8 |  |  |  | COc1ccccc1N1CCN(CCCOc2ccc3c(c2)NC(=O)CC3)CC1
12 | 2600 | 2.6 | 5.7 | 52.7 |  |  |  |  | COc1ccccc1N1CCN(CCCOc2ccc3ccc(=O)[nH]c3c2)CC1
13 | 2630 | 0.14 | 5.4 | 30.1 |  |  |  |  | COc1ccccc1N1CCN(CCCCOc2ccc3ccc(=O)[nH]c3c2)CC1
14 | 1610 | 7.4 | 3.8 | 201 |  |  |  |  | COc1ccccc1N1CCN(CCCCCOc2ccc3ccc(=O)[nH]c3c2)CC1
15 | 20900 | 0.07 | 2.7 | 31.9 |  |  |  |  | O=c1ccc2ccc(OCCCCN3CCN(c4ccccc4OCCF)CC3)cc2[nH]1
